Experimental findings from patent US5071750A, “Enzymatic process for preparing N-acetylneuraminic acid” (Forschungszentrum Juelich GmbH, priority 1989, dated 1991) are described below.

The target in test [1] is T1, N-acylglucosamine-2-epimerase (E.C. 5.1.3.8) (Sus scrofa, UniProt P17560).
T1 sequence (P17560 1-402): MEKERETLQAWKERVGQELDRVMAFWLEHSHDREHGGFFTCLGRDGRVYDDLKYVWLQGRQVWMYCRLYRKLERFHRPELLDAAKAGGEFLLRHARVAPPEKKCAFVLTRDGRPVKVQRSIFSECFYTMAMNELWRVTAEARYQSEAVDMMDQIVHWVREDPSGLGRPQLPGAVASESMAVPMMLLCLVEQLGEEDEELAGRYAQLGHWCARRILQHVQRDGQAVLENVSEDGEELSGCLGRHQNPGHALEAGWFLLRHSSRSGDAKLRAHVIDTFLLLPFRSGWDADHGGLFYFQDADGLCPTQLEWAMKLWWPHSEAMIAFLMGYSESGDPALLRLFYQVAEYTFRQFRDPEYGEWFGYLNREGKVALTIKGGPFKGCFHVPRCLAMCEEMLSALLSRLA
The test can be described thus: relative activity of the epimerase (isomerization of GlcNAc to ManNAc) in the presence of pyruvate or Neu5Ac. It counts as biochemical. Conditions: as a function of the concentration of the inhibiting substance (FIG. 2A).

Test [2] deals with N-acetylneuraminic acid pyruvate lyase (E.C. 4.1.3.3) (Escherichia coli, UniProt P0A6L4). The test can be described thus: reverse reaction (cleavage of Neu5Ac) by the lyase in the presence of pyruvate. It counts as biochemical. As to conditions: considerable excess of pyruvate in comparison with the Neu5Ac formed (FIG. 4). The text has this: Because of the large excess of pyruvate, subsequent conversion of the ManNAc to Neu5Ac is promoted.
Chain of N-acetylneuraminic acid pyruvate lyase (E.C. 4.1.3.3) (P0A6L4 whole entry): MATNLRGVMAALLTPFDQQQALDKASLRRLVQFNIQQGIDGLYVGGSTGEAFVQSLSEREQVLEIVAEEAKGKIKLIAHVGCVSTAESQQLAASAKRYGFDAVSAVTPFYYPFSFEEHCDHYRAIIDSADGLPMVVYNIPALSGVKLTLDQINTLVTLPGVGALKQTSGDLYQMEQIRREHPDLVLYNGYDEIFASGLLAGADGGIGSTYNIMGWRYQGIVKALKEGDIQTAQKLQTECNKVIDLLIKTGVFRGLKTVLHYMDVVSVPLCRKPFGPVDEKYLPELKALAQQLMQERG
The Neu5Ac formed is, in accordance with the precision of the equilibrium, subject to more or less strong renewed cleavage by the reverse reaction. Although this reaction is inhibited by an excess of pyruvate (see FIG. 4), it appears advantageous continuously to pass reaction medium from the EMR over an ion exchange column and recycle the rest into the reactor. Alternate use of two columns is advantageous.

Consider `CC(=O)N[C@H]1[C@H]([C@H](O)[C@H](O)CO)OC(O)(C(=O)O)C[C@@H]1O` (stereo partly drawn) [N-acetylneuraminic acid], for which, in test [1], the “inhibition of the epimerase-catalysed isomerization of GlcNAc to ManNAc” value is reported as “inhibiting effect”.

As to `CC(=O)C(=O)O` [pyruvic acid], in test [1], the “inhibition of the epimerase-catalysed isomerization of GlcNAc to ManNAc” value was “increasingly inhibited”. For the same compound, the “inhibition of the reverse reaction of Neu5Ac formation” value in test [2] was “strongly inhibited”.
